Among the test systems are MOLT-4 leukemia; OVCAR-3 ovarian; KM12 colon; RXF 393 renal; EKVX NSCLC; M14 melanoma; COLO 205 colon; T-47D breast; OVCAR-5 ovarian; HT29 colon.
Experiment in all cases: inhibition of tumour cell growth, NCI panel, 48 h

Molecules are shown by their SMILES. Where “and” joins values, the source holds several entries; their conditions need not be identical. Equal entries are not always repeated.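 Interpolation was linear, between the two tested concentrations surrounding the appropriate level; five concentrations were tested over 48 hours in 96-well plates. GI50 marks 50% less growth. TGI denotes the concentration required for complete inhibition of growth.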

For the compound `C=C1C[C@H](O)[C@H](Br)C(C)(C)[C@@]12CCC(C)=C(Cl)C2`, the GI50 in the experiment on MOLT-4 leukemia was 229 nM; in the experiment on OVCAR-3 ovarian, 509 nM; in the experiment on KM12 colon, 311 nM; in the experiment on RXF 393 renal, 350 nM; in the experiment with EKVX NSCLC, 37.1 nM; in the experiment on M14 melanoma, 314 nM. Also, the GI50 in the experiment with COLO 205 colon was 157 nM; in the experiment with T-47D breast it was 150 nM; in the experiment with OVCAR-5 ovarian it was 0.342 µM; in the experiment with HT29 colon, 0.26 µM. For the same compound, the TGI was 0.795 µM with MOLT-4 leukemia; 4.13 µM in the experiment on OVCAR-3 ovarian; 2.11 µM with KM12 colon; 4.12 µM with RXF 393 renal; 1.37 µM in the experiment with EKVX NSCLC; 1.66 µM in the experiment on M14 melanoma. For the same compound, the TGI in the experiment with COLO 205 colon was determined as 0.51 µM; with T-47D breast, 11.3 µM; with OVCAR-5 ovarian, 8.87 µM; in the experiment on HT29 colon, 1.45 µM.
Consider `C=CC(=O)Nc1cc(Nc2nccc(-c3cn(C)c4ccccc34)n2)c(OC)cc1N(C)CCN(C)C`, for which the GI50 in the experiment with MOLT-4 leukemia was 1770 nM and 1490 nM; in the experiment with OVCAR-3 ovarian it was 1400 nM and 1380 nM; in the experiment with KM12 colon it was 2310 nM and 2120 nM; with RXF 393 renal it was 1450 nM and 1340 nM; with EKVX NSCLC, 751 nM and 200 nM; in the experiment on M14 melanoma it was 1910 nM and 1730 nM. Moreover, the GI50 in the experiment on COLO 205 colon is 1620 nM and 1430 nM; in the experiment on T-47D breast it was 815 nM and 363 nM; with OVCAR-5 ovarian, 1.3 µM and 1.29 µM; with HT29 colon, 1.84 µM and 1.51 µM. For the same compound, the TGI with MOLT-4 leukemia is 5.08 µM and 3.66 µM; in the experiment on OVCAR-3 ovarian, 2.93 µM and 3.04 µM; in the experiment on KM12 colon it was 5.49 µM and 5.41 µM; in the experiment with RXF 393 renal, 3.1 µM and 2.98 µM; in the experiment on EKVX NSCLC it was 4.08 µM and 3.4 µM; with M14 melanoma it was 3.6 µM and 3.32 µM. Moreover, the TGI in the experiment on COLO 205 colon was 3.14 µM and 2.99 µM; with T-47D breast, 11.6 µM and > 10 µM; in the experiment with OVCAR-5 ovarian it was 2.95 µM and 6.55 µM; in the experiment on HT29 colon it was 4.07 µM and 3.24 µM.
Turning to `CN(C)c1ccc(/C=N/NC(=S)Nc2ccccc2)cc1`, the TGI in the experiment on MOLT-4 leukemia, in the experiment on OVCAR-3 ovarian, in the experiment with KM12 colon, with RXF 393 renal, in the experiment with EKVX NSCLC and in the experiment on M14 melanoma was above 100 µM in each case. The TGI with COLO 205 colon, with T-47D breast, with OVCAR-5 ovarian and in the experiment on HT29 colon was above 100 µM throughout.
On to `CC[C@@H](c1ccc(O)c(O)c1)[C@@H](CC)c1ccc(O)c(O)c1`, for which the GI50 in the experiment with MOLT-4 leukemia was 4210 nM; with OVCAR-3 ovarian it was 3610 nM; in the experiment with KM12 colon, 18500 nM; in the experiment with RXF 393 renal it was 2570 nM; with EKVX NSCLC, 13400 nM; in the experiment with M14 melanoma, 3590 nM. Besides, the GI50 with COLO 205 colon is 1970 nM; with T-47D breast, 2480 nM; with OVCAR-5 ovarian it was 19.5 µM; in the experiment on HT29 colon, 11.9 µM. The TGI worked out at 22.5 µM in the experiment with MOLT-4 leukemia; 11.6 µM with OVCAR-3 ovarian; 35.1 µM in the experiment on KM12 colon; 7.59 µM in the experiment with RXF 393 renal; 29.4 µM in the experiment on EKVX NSCLC; 13.5 µM in the experiment on M14 melanoma. Besides, the TGI turned out to be 4.11 µM with COLO 205 colon, 7.96 µM with T-47D breast, 37.8 µM in the experiment with OVCAR-5 ovarian and 58.2 µM in the experiment with HT29 colon.
`O=C1c2c(F)c(F)c(F)c(F)c2C(=O)N1c1ccc(F)cc1F`: the GI50 in the experiment with MOLT-4 leukemia was 864 nM; with OVCAR-3 ovarian, 9170 nM; in the experiment with KM12 colon, 22500 nM; in the experiment on RXF 393 renal it was 7680 nM; in the experiment with EKVX NSCLC, 16800 nM; in the experiment on M14 melanoma, 13400 nM. In addition, the GI50 in the experiment on COLO 205 colon is 10900 nM; in the experiment on T-47D breast, 19700 nM; in the experiment on OVCAR-5 ovarian, 12.6 µM; with HT29 colon, 7.36 µM. In addition, the TGI in the experiment with MOLT-4 leukemia was 3.73 µM; in the experiment with OVCAR-3 ovarian, 27.5 µM; with KM12 colon, 65.5 µM; in the experiment on RXF 393 renal, above 46.7 µM; with EKVX NSCLC it was 35.9 µM; in the experiment on M14 melanoma, 33.6 µM. Further, the TGI with COLO 205 colon is 35.7 µM; in the experiment on T-47D breast it was 46.8 µM; in the experiment on OVCAR-5 ovarian, 26.5 µM; in the experiment with HT29 colon, above 100 µM.
With `O=C1OCC2=C1C(c1cccc(Br)c1)c1cc3c(cc1N2CCO)OCCO3` (stereo not given), the GI50 was 225 nM in the experiment with MOLT-4 leukemia; 34.5 nM in the experiment with OVCAR-3 ovarian; 44.2 nM in the experiment on KM12 colon; 12 nM in the experiment with RXF 393 renal; 1300 nM in the experiment with EKVX NSCLC; 42.1 nM in the experiment on M14 melanoma. In addition, the GI50 was 79 nM in the experiment on COLO 205 colon, 379 nM in the experiment on T-47D breast, 0.221 µM with OVCAR-5 ovarian and 0.0507 µM in the experiment on HT29 colon. For the same compound, the TGI in the experiment with MOLT-4 leukemia was above 42.2 µM; in the experiment with OVCAR-3 ovarian, 0.0967 µM; in the experiment with KM12 colon, 2.31 µM; with RXF 393 renal, 0.0361 µM; with EKVX NSCLC, 48.7 µM; with M14 melanoma, 0.453 µM. Besides, the TGI with COLO 205 colon was 0.371 µM; in the experiment with T-47D breast, above 41.3 µM; in the experiment on OVCAR-5 ovarian it was above 33.7 µM; in the experiment on HT29 colon it was 0.233 µM.
In the case of `COC(=O)[C@]12CC[C@@H](C)[C@H](C)[C@@H]1C1=CC[C@@H]3[C@@]4(C)C[C@@H](O)[C@H](O)[C@@](C)(CO)[C@@H]4[C@H](O)C[C@@]3(C)[C@]1(C)CC2`, the GI50 in the experiment on MOLT-4 leukemia is 4580 nM; in the experiment with OVCAR-3 ovarian, 12800 nM; in the experiment with KM12 colon, 12300 nM; in the experiment with RXF 393 renal it was 9320 nM; with EKVX NSCLC it was 13400 nM; in the experiment on M14 melanoma it was 12800 nM. Besides, the GI50 is 14800 nM in the experiment with COLO 205 colon, 7230 nM in the experiment with T-47D breast, 17.9 µM in the experiment with OVCAR-5 ovarian and 17.1 µM in the experiment with HT29 colon. Besides, the TGI amounted to 25.6 µM with MOLT-4 leukemia; 26 µM in the experiment with OVCAR-3 ovarian; 26.4 µM in the experiment with KM12 colon; 23.1 µM in the experiment on RXF 393 renal; 31.4 µM in the experiment with EKVX NSCLC; 29.4 µM in the experiment with M14 melanoma. Also, the TGI with COLO 205 colon amounted to 31.2 µM; in the experiment on T-47D breast, 29.1 µM; in the experiment on OVCAR-5 ovarian, 36.4 µM; in the experiment on HT29 colon, 36.3 µM.
Take `COc1c2ccccc2c(OC)c2[nH]c(=O)ccc12`: the GI50 with MOLT-4 leukemia was above 21500 nM; with OVCAR-3 ovarian, 2310 nM; in the experiment with KM12 colon it was 3110 nM; in the experiment with RXF 393 renal, 16300 nM; in the experiment with EKVX NSCLC, 2830 nM; with M14 melanoma, 843 nM. The GI50 with COLO 205 colon was 4300 nM; in the experiment with T-47D breast it was 21500 nM; in the experiment with OVCAR-5 ovarian, 8.02 µM; in the experiment on HT29 colon it was 4.66 µM. Further, the TGI in the experiment with MOLT-4 leukemia is above 100 µM; in the experiment on OVCAR-3 ovarian, 6.89 µM; in the experiment on KM12 colon, above 27.5 µM; in the experiment on RXF 393 renal, above 100 µM; in the experiment on EKVX NSCLC, above 100 µM; in the experiment on M14 melanoma, 2.37 µM. Also, the TGI with COLO 205 colon is 14.9 µM; in the experiment with T-47D breast it was above 100 µM; in the experiment on OVCAR-5 ovarian it was above 85.4 µM; in the experiment on HT29 colon, above 57 µM.

For the origin of these results see PubChem BioAssay (NCI).
